Data from paper PMC9571628 (Molecules, 2022).
Values belong to the compound of their own block, whether it stands above or below them.

How the values were obtained:
[1] = Pharmacokinetic interaction study between SOR and DAPA in rats (oral gavage, plasma by UPLC-MS/MS); settings: for AUC(0-t) / Cmax / AUC(0-inf) / CL/F / MRT last / MRT inf / Tmax / Vd/F / half-life: n = 6; for AUC(0-inf): AUC0–∞; for CL/F: CLz/F; for MRT last: MRT0-t; for MRT inf: MRT0–∞; for Vd/F: Vz/F; for half-life: t1/2z;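 on all read-outs here: parameters derived by non-compartmental analysis of plasma concentration–time data, with analyte levels measured by UPLC-MS/MS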
Protocol: Analytes were quantified using Ultra-Performance Liquid Chromatography-Tandem Mass Spectrometry (UPLC-MS/MS) which consisted of an LC-30A ultra-performance liquid chromatography (Shimadzu, Kyoto, Japan) and Sciex Triple Quad 5500 tandem triple quadrupole mass spectrometer (AB Sciex, Framingham, MA, USA). Chromatographic separation was performed using an XSelect HSS T3 column (2.1 mm × 100 mm, 2.5 μm, Waters, Milford, MA, USA) at 40 °C by gradient elution. The mobile phase consisted of water with 0.1% formic acid and 5 mM ammonium acetate (phase A) and acetonitrile (phase B), and the gradient elution procedure was as follows: 0–0.5 min, 60–90% B; 0.5–3 min, 90% B; 3–3.1 min, 90–60% B; and 3.1–4 min, 60% B. The injection volume was 5 μL.
A volume of 25 µL plasma samples, 2.5 µL IS mixed working solution, and 150 μL methyl tertbutyl ether was added, then vortex-mixed for 1 min. The mixture was centrifuged at 12,000× g for 10 min. The organic phase was transferred to a new centrifuged tube and evaporated to dryness under a stream of nitrogen at room temperature. The dried samples were redissolved with 100 μL of 50% acetonitrile and briefly vortexed for 1 min, then 5 μL was injected into the UPLC-MS/MS for analysis.
Adult male Sprague-Dawley (SD) rats weighing 230 ± 30 g were provided by Beijing Weitong Lihua Experimental Animal Technology Co., Ltd. (Beijing, China). The license number is SCXK (Beijing) 2016–0011. All experimental procedures for this study were reviewed and approved by the Animal Ethics Committee of Hebei General Hospital (Shijiazhuang, China) (No. 2022072). The rats were adapted to the standard laboratory conditions (12 h dark–light cycle, temperature at approximately 23 ± 2 °C, relative humidity of 50 ± 10%) for a week. All the rats were given access to water freely, while the diet was prohibited for 12 h before administration.
Twenty-four healthy rats were randomly divided into four groups (n = 6 in each group). […] Blood samples were then centrifuged at 3500× g for 10 min at 4 °C, and the supernatant was transferred to another centrifuged tube, then stored in a −80 °C freezer until analysis.
DAS 2.1.1 Software (Mathematical Pharmacology Professional Committee of China, Shanghai, China) was used to calculate pharmacokinetic parameters with non-compartmental analysis. The pharmacokinetic analysis included AUC (area under the concentration–time curve), Cmax (maximum plasma concentration), Tmax (time to maximum plasma concentration), t1/2 (time required to eliminate half of plasma drug concentration), CLz/F (clearance of drug plasma volume per time unit), Vz/F (apparent volume of distribution), and MRT (mean residence time). SPSS 25.0 statistical software (SPSS Inc., Chicago, IL, USA) was used to statistically analyze the above-mentioned pharmacokinetic parameters. Statistical comparisons of the experimental and control groups were conducted using a nonparametric rank-sum test or t-test, depending on the data type; p < 0.05 was considered statistically significant.

[2] = design: method as in PMID 27561659; settings: following oral administration of SOR; cited from earlier work
[3] = with metformin; cited from earlier work
human UGT enzymes = test system: human UGT enzymes; design: method as in PMID 28065859; settings: in vitro studies; cited from earlier work
[4] = design: method as in earlier work; settings: co-administration of neomycin; cited from earlier work
Ugt1a7 mRNA = assay: qRT-PCR of Ugt1a7 mRNA in liver and intestines of rats after multiple doses; type: in vivo
Protocol: The qRT-PCR analysis was used to measure mRNA levels of Ugt1a7 in the liver and intestines of rats. Total RNA was isolated from frozen liver and intestine samples using the TRNzol Universal as per the manufacturer’s instructions. A Bio Tek Epoch (Bio Tek Instruments, Inc., Winooski, VT, USA) was used to quantify the concentration and purity of the total RNA based on the ratio of the absorbance between 260 and 280 nm. RNA samples of 1 μg of were converted to complementary (cDNA) using the FastKing RT Kit. The real-time PCR assays were performed using a two-step amplification method according to the manufacturer’s recommendations in a SLAN-96S Real-Time PCR system (Shanghai Hongshi Medical Technology Co., Ltd. Shanghai, China). The PCR cycling conditions were as follows: 95 °C for 15 min, followed by 40 cycles of 95 °C for 10 s and 60 °C for 32 s. The sequences of primers are listed in Table 6. β-actin was used as an internal control.

[5] = Stability of QC samples in rat plasma under different storage and processing conditions; type: physicochemical; settings: for Accuracy (RE%) / Mean ± SD concentration found: rat plasma, n = 6; for stability in rat plasma: autosampler for 6 h, room temperature for 4 h, three cycles of freezing and thawing (−80 °C to room temperature)
Protocol: The stability of QC samples in rat plasma was tested in six replicates at three concentration levels exposed to different storage and processing conditions: autosampler for 6 h after processing, room temperature for 4 h, −80 °C for 30 days, three freeze–thaw cycles (−80 °C to room temperature).

UGT1A1 = settings: cited from earlier work
[6] = cited from earlier work
UGT1A9 = settings: cited from earlier work
CYP450 = settings: cited from earlier work
[7] = male, Sprague-Dawley, rat, plasma, po, 100 mg/kg, SOR 100 mg/kg oral, alone
[8] = with multiple doses of DAPA vs control group (SOR alone)
[9] = Autosampler for 6 h, nominal 10 ng/mL
[10] = Autosampler for 6 h, nominal 1500 ng/mL
[11] = Autosampler for 6 h, nominal 3750 ng/mL
[12] = Freeze–thaw stability for three times, nominal 10 ng/mL
[13] = Freeze–thaw stability for three times, nominal 1500 ng/mL
[14] = Freeze–thaw stability for three times, nominal 3750 ng/mL
[15] = Room temperature for 4 h, nominal 10 ng/mL
[16] = Room temperature for 4 h, nominal 1500 ng/mL
[17] = Room temperature for 4 h, nominal 3750 ng/mL
[18] = −80 °C for 30 days, nominal 10 ng/mL
[19] = −80 °C for 30 days, nominal 1500 ng/mL
[20] = −80 °C for 30 days, nominal 3750 ng/mL
[21] = co-administered with multiple doses of SOR vs control group (DAPA alone)
[22] = male, Sprague-Dawley, rat, in vivo, po, 1 mg/kg, DAPA 1 mg/kg oral with multiple-doses SOR (100 mg/kg, seven days)
[23] = male, Sprague-Dawley, rat, in vivo, po, 1 mg/kg, DAPA 1 mg/kg oral, alone
[24] = Autosampler for 6 h, nominal 15 ng/mL
[25] = Autosampler for 6 h, nominal 800 ng/mL
[26] = Freeze–thaw stability for three times, nominal 15 ng/mL
[27] = Freeze–thaw stability for three times, nominal 800 ng/mL
[28] = Room temperature for 4 h, nominal 15 ng/mL
[29] = Room temperature for 4 h, nominal 800 ng/mL
[30] = −80 °C for 30 days, nominal 15 ng/mL
[31] = −80 °C for 30 days, nominal 800 ng/mL

SMILES: CNC(=O)c1cc(Oc2ccc(NC(=O)Nc3ccc(Cl)c(C(F)(F)F)c3)cc2)ccn1 [SOR, Sorafenib]
- AUC(0-t) ([1]; SOR 100 mg/kg oral, alone): 62,701.33 ± 16,697.65 μg/L × h
- Cmax ([1]; SOR 100 mg/kg oral, alone): 1547.87 ± 136.94 ng/mL
- shape of pharmacokinetic curve of SOR ([1]; after 72 h of SOR gavage): second absorption peak
- AUC(0-inf) [1, 7]: 63700 ng·h/mL
- CL/F [1, 7]: 28.2 mL/min/kg
- MRT last [1, 7]: 47.1 ± 9.48 h
- MRT inf [1, 7]: 48.7 ± 10.5 h
- Tmax [1, 7]: 7.5 ± 0.55 h
- Vd/F [1, 7]: 37.4 ± 9.78 L/kg
- half-life [1, 7]: 17.5 ± 5.65 h
- change of t1/2z, MRT0–t and MRT0–∞ of SOR between the groups ([1]; with multiple doses of DAPA vs SOR alone): no statistically significant changes
- decrease of AUC0–t of SOR [1, 8]: 50.5%
- decrease of AUC0–∞ of SOR [1, 8]: 46.2%
- decrease of Cmax of SOR [1, 8]: 41.6%
- time at which maximum plasma concentrations are reached [2]: approximately 3 h
- change of exposure to SOR [3]: halved
- inhibition of human UGT enzymes (human UGT enzymes): one of the most powerful inhibitors
- decrease of SOR exposure [4]: 54%
- downregulation of mRNA expression of Ugt1a7 in the intestines (Ugt1a7 mRNA; multiple doses of SOR (100 mg/kg, seven days), rat intestines): ~32.09%
- downregulation of mRNA expression of Ugt1a7 in the liver (Ugt1a7 mRNA; multiple doses of SOR (100 mg/kg, seven days), rat liver): ~32.50%
- Accuracy (RE%) [5, 9]: 0.9%
- Mean ± SD concentration found [5, 9]: 10.09 ± 0.53 ng/mL
- Accuracy (RE%) [5, 10]: 2.6%
- Mean ± SD concentration found [5, 10]: 1538.33 ± 36.56 ng/mL
- Accuracy (RE%) [5, 11]: −0.9%
- Mean ± SD concentration found [5, 11]: 3716.67 ± 66.23 ng/mL
- Accuracy (RE%) [5, 12]: −1.7%
- Mean ± SD concentration found [5, 12]: 9.84 ± 0.34 ng/mL
- Accuracy (RE%) [5, 13]: 3.3%
- Mean ± SD concentration found [5, 13]: 1550.00 ± 12.65 ng/mL
- Accuracy (RE%) [5, 14]: −4.0%
- Mean ± SD concentration found [5, 14]: 3601.67 ± 164.00 ng/mL
- Accuracy (RE%) [5, 15]: 6.8%
- Mean ± SD concentration found [5, 15]: 10.68 ± 0.55 ng/mL
- Accuracy (RE%) [5, 16]: −3.4%
- Mean ± SD concentration found [5, 16]: 1448.33 ± 18.35 ng/mL
- Accuracy (RE%) [5, 17]: −5.8%
- Mean ± SD concentration found [5, 17]: 3533.33 ± 66.23 ng/mL
- stability in rat plasma ([5]; −80 °C for 30 days): stable
- Accuracy (RE%) [5, 18]: 2.0%
- Mean ± SD concentration found [5, 18]: 10.20 ± 0.39 ng/mL
- Accuracy (RE%) [5, 19]: 2.2%
- Mean ± SD concentration found [5, 19]: 1533 ± 40.33 ng/mL
- Accuracy (RE%) [5, 20]: −4.2%
- Mean ± SD concentration found [5, 20]: 3593.33 ± 142.22 ng/mL

- decrease of CLz/F of DAPA [1, 21]: 40%
- elevation of MRT0–t of DAPA [1, 21]: 1.48 fold
- elevation of MRT0–∞ of DAPA [1, 21]: 1.80 fold
- elevation of Tmax of DAPA [1, 21]: 1.43 fold
- increase of AUC0–t of DAPA [1, 21]: 1.66 fold
- increase of AUC0–∞ of DAPA [1, 21]: 1.80 fold
- AUC(0-t) ([1]; male, Sprague-Dawley, rat, in vivo, po, 1 mg/kg, AUC0-t, DAPA 1 mg/kg oral with multiple-doses SOR (100 mg/kg, seven days)): 8570 ± 2860 ng·h/mL
- AUC(0-t) ([1]; male, Sprague-Dawley, rat, in vivo, po, 1 mg/kg, AUC0-t, DAPA 1 mg/kg oral, alone): 5160 ± 1030 ng·h/mL
- AUC(0-inf) [1, 22]: 9300 ± 4260 ng·h/mL
- AUC(0-inf) [1, 23]: 5180 ± 1050 ng·h/mL
- CL/F [1, 22]: 2 mL/min/kg
- CL/F [1, 23]: 3.33 mL/min/kg
- Cmax ([1]; male, Sprague-Dawley, rat, in vivo, po, 1 mg/kg, Cmax, DAPA 1 mg/kg oral with multiple-doses SOR (100 mg/kg, seven days)): 871 ± 167 ng/mL
- Cmax ([1]; male, Sprague-Dawley, rat, in vivo, po, 1 mg/kg, Cmax, DAPA 1 mg/kg oral, alone): 846 ± 76.4 ng/mL
- MRT last [1, 22]: 9.01 ± 1.22 h
- MRT last [1, 23]: 6.1 ± 0.96 h
- MRT inf [1, 22]: 11.2 ± 4.86 h
- MRT inf [1, 23]: 6.25 ± 1.07 h
- Tmax [1, 22]: 0.83 ± 0.41 h
- Tmax [1, 23]: 0.58 ± 0.2 h
- Vd/F [1, 22]: 1.12 ± 0.1 L/kg
- Vd/F [1, 23]: 1.27 ± 0.19 L/kg
- half-life [1, 22]: 7.95 ± 4.03 h
- half-life [1, 23]: 4.51 ± 0.67 h
- Accuracy (RE%) [5, 24]: −0.4%
- Mean ± SD concentration found [5, 24]: 14.93 ± 0.83 ng/mL
- Accuracy (RE%) [5, 25]: 3.8%
- Mean ± SD concentration found [5, 25]: 830.00 ± 15.05 ng/mL
- Accuracy (RE%) [5, 10]: 9.6%
- Mean ± SD concentration found [5, 10]: 1643.33 ± 32.66 ng/mL
- Accuracy (RE%) [5, 26]: 1.2%
- Mean ± SD concentration found [5, 26]: 15.18 ± 0.87 ng/mL
- Accuracy (RE%) [5, 27]: −3.8%
- Mean ± SD concentration found [5, 27]: 769.83 ± 44.56 ng/mL
- Accuracy (RE%) [5, 13]: −7.4%
- Mean ± SD concentration found [5, 13]: 1388.33 ± 54.19 ng/mL
- Accuracy (RE%) [5, 28]: −0.7%
- Mean ± SD concentration found [5, 28]: 14.90 ± 0.49 ng/mL
- Accuracy (RE%) [5, 29]: 11.1%
- Mean ± SD concentration found [5, 29]: 889.00 ± 15.43 ng/mL
- Accuracy (RE%) [5, 16]: 10.2%
- Mean ± SD concentration found [5, 16]: 1653.33 ± 21.60 ng/mL
- stability in rat plasma ([5]; −80 °C for 30 days): stable
- Accuracy (RE%) [5, 30]: 2.9%
- Mean ± SD concentration found [5, 30]: 15.43 ± 1.07 ng/mL
- Accuracy (RE%) [5, 31]: 2.8%
- Mean ± SD concentration found [5, 31]: 822.17 ± 21.66 ng/mL
- Accuracy (RE%) [5, 19]: −1.1%
- Mean ± SD concentration found [5, 19]: 1483.33 ± 19.66 ng/mL
SMILES: CCOc1ccc(Cc2cc([C@@H]3O[C@H](CO)[C@@H](O)[C@H](O)[C@H]3O)ccc2Cl)cc1 [DAPA, Dapagliflozin]
- UGT1A1 inhibitor strength (UGT1A1): moderate
- increase of exposure of DAPA ([6]; with mefenamic acid (a strong UGT1A9 inhibitor)): 51%
- reduction of exposure of DAPA ([6]; with rifampin (a pleiotropic enzyme inducer)): 22%
- effect on the expression of Ugt1a7 in the intestines (Ugt1a7 mRNA; DAPA administered to rats for seven consecutive days (1 mg/kg), intestines): no significant effect
- inhibition of mRNA expression of Ugt1a7 in the liver (Ugt1a7 mRNA; DAPA administered to rats for seven consecutive days (1 mg/kg), liver): 59.31%
- UGT1A9 inhibitor strength (UGT1A9): moderate
- share metabolized by CYP450 (CYP450): < 10%
